Experimental data taken from ChEMBL document CHEMBL3421601, “Rapid development of two factor IXa inhibitors from hit to lead” (Bioorg Med Chem Lett, 2015).

Key:
Coagulation factor IX = Coagulation factor IX (Homo sapiens, UniProt P00740); assay: Inhibition of human factor 9a using CH3SO2-D-CHG-Gly-Arg-AFC.AcOH as substrate by fluorescence assay
[1] = Inhibition of CYP (unknown origin); assay type: ADME; details: human
[2] = molecular target: Voltage-gated inwardly rectifying potassium channel KCNH2 (Homo sapiens, UniProt Q12809); assay: Inhibition of human ERG
Chain of Voltage-gated inwardly rectifying potassium channel KCNH2 (Q12809 whole entry): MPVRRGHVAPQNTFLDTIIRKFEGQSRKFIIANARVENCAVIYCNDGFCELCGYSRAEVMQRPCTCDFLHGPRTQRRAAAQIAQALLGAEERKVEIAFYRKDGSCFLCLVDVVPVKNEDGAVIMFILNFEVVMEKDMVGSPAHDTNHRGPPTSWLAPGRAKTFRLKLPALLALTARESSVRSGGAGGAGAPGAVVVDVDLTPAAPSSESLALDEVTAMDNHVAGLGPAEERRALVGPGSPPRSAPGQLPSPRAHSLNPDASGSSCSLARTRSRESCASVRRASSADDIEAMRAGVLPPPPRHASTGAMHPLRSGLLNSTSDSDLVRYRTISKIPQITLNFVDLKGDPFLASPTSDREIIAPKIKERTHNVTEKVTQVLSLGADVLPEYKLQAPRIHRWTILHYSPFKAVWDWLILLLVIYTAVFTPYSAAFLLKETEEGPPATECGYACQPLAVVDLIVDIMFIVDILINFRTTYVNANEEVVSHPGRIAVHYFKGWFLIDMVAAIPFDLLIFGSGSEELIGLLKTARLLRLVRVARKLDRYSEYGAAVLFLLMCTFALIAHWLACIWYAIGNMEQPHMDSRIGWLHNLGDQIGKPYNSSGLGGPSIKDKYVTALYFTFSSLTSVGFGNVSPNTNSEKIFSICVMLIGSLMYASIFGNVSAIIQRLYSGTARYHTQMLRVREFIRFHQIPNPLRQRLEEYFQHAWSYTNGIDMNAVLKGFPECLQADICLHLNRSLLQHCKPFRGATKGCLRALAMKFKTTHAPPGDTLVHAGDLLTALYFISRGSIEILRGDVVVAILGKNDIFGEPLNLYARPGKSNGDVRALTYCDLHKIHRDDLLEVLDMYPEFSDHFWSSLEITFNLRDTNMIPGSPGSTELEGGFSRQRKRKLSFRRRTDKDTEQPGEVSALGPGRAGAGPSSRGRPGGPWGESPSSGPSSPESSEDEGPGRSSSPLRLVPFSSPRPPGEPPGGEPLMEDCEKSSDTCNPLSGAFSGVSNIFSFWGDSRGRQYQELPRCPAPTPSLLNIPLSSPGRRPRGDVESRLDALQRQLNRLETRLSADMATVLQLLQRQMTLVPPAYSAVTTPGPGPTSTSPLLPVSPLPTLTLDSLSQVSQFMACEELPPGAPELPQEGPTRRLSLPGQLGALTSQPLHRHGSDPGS

Coagulation factor X = Coagulation factor X (Homo sapiens, UniProt P00742); assay: Inhibition of human factor 10a using n-Acetyl-KPR-AFC as substrate by fluorescence assay
Chain of Coagulation factor X (P00742 41-179 limits assumed): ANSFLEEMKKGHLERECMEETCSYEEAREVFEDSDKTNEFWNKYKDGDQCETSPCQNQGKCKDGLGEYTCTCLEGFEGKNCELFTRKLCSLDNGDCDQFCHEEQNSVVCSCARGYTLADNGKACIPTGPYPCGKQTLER
Chain of Coagulation factor X (P00742 235-488 limits assumed): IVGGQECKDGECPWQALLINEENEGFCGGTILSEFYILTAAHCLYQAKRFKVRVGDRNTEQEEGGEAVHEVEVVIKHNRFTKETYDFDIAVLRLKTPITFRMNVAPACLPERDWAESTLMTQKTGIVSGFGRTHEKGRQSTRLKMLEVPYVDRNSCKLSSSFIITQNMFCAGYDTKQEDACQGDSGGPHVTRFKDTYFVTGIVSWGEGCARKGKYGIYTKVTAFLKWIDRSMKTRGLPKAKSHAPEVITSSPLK

Chain of Coagulation factor IX (P00740 47-191 limits assumed): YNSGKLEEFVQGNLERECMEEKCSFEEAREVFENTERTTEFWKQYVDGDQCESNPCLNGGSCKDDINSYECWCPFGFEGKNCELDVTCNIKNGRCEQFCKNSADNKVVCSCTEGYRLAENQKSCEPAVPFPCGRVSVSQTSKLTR
Chain of Coagulation factor IX (P00740 227-461 limits assumed): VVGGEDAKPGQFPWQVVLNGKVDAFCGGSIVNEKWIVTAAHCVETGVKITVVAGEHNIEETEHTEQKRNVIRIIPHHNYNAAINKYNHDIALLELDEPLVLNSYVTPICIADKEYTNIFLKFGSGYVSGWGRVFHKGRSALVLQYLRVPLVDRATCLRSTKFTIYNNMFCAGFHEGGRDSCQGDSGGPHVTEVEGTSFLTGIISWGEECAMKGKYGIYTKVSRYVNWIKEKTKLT

Compound | Ki (Coagulation factor IX) [µM] | other results
Cc1ccc(O)c2c3c(nn12)CCC(C)(NC(=O)c1ccc(-n2cccn2)cc1Cl)C3 (configuration not stated) | 4.4 | 
Cc1cc2nc(CCNC(=O)c3ccccc3-n3cnnc3)[nH]c2cc1C | > 145 | 
Cc1cc2nc(C(C)CNC(=O)c3ccc(-n4cnnc4)cc3Cl)[nH]c2cc1C (racemic) | 0.34 | 
Cc1cc2nc(C[C@@H](C)NC(=O)c3ccc(-n4cnnc4)cc3Cl)[nH]c2cc1C | 35 | 
Cc1cc2nc([C@H](CNC(=O)c3ccc(-n4cnnc4)cc3Cl)c3ccccc3)[nH]c2cc1C | 0.52 | 
Cc1cc2nc([C@@H](CNC(=O)c3ccc(-n4cnnc4)cc3Cl)c3ccccc3)[nH]c2cc1C | 0.016 | inhibition (INH) [1]: Not Active; inhibition (INH) [2]: Not Active; Ki (Coagulation factor X): 0.39 µM
Cc1ccc(O)c2c3c(nn12)CCC(C)(NC(=O)c1ccc(C#N)cc1)C3 (configuration not stated) | 20.6 | 
Cc1ccc(O)c2c3c(nn12)CCC(C)(NC(=O)c1ccc(-n2nccn2)cc1Cl)C3 (configuration not stated) | 30.3 | 
Cc1cc2nc(C[C@H](C)NC(=O)c3ccc(-n4cnnc4)cc3Cl)[nH]c2cc1C | 55.4 | 
Cc1cc2nc(CCNC(=O)c3ccc(-n4nccn4)cc3Cl)[nH]c2cc1C | > 145 | 
Cc1ccc(O)c2c3c(nn12)CCC(C)(NC(=O)c1ccc(-n2ccnn2)cc1Cl)C3 (configuration not stated) | 0.937 | 
Cc1ccc(O)c2c3c(nn12)CCC(C)(NC(=O)c1ccccc1Cl)C3 (configuration not stated) | 6.34 | 
Cc1ccc(O)c2c3c(nn12)CCC(C)(NC(=O)c1ccc(-n2cncn2)cc1Cl)C3 (configuration not stated) | 0.156 | 
Cc1cc2nc(CCNC(=O)c3ccc(-n4ccnc4)cc3Cl)[nH]c2cc1C | 5.58 | 
Cc1cc2nc(CCNC(=O)c3ccc(C#N)cc3F)[nH]c2cc1C | > 145 | 
Cc1cc2nc(CCNC(=O)c3ccc(-n4cnnc4)cc3)[nH]c2cc1C |  | Ki (Coagulation factor X): > 62.5 µM
Cc1ccc(O)c2c3c(nn12)CCC(C)(NC(=O)c1ccc(F)cc1)C3 (configuration not stated) | 18.3 | 

Continued, in another order:

Ki (Coagulation factor IX) [µM] | Compound | other results
> 145 | Cc1cc2nc(CCNC(=O)c3ccccc3Cl)[nH]c2cc1C | 
2.12 | Cc1cc2nc(CCNC(=O)c3ccc(-n4cncn4)cc3Cl)[nH]c2cc1C | 
2 | Cc1ccc(O)c2c3c(nn12)CCC(C)(NC(=O)c1ccc(C#N)cc1F)C3 (configuration not stated) | Ki (Coagulation factor X): > 62.5 µM
0.595 | Cc1ccc(O)c2c3c(nn12)CCC(C)(NC(=O)c1ccc(-n2ccnc2)cc1Cl)C3 (configuration not stated) | 
0.462 | Cc1ccc(O)c2c3c(nn12)CCC(C)(NC(=O)c1ccc(-n2ccnn2)cc1)C3 (configuration not stated) | 
0.09 | Cc1ccc(O)c2c3c(nn12)CCC(C)(NC(=O)c1ccc(-n2cnnc2)cc1Cl)C3 (configuration not stated) | inhibition (INH) [1]: Not Active; inhibition (INH) [2]: Not Active; Ki (Coagulation factor X): 12 µM
130 | Cc1cc2nc(CCNC(=O)c3ccc(-n4ccnn4)cc3Cl)[nH]c2cc1C | 
131 | Cc1ccc(O)c2nc(CCNC(=O)c3ccc(-n4cnnc4)cc3Cl)[nH]c12 | 
